Laboratory results published in US10183914B2 (BAYER CROPSCIENCE AKTIENGESELLSCHAFT, priority 2014, dated 2019).

Key:
Zea mays [1] = assay: Pre-emergence herbicidal effect and crop plant compatibility; assay type: in vivo; conditions: 3 weeks
Summary of the method: (§1)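 Application to covering soil post-sowing: WP or EC, 600–800 L/ha, 0.2% wetting agent. Readout: visual % efficacy after 3 weeks, greenhouse, untreated plants as 0%.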

[2] = tested on: Triticum aestivum (spring); assay: as above; assay type: in vivo; conditions: 3 weeks
Summary of the method: as §1

Oryza sativa [3] = assay: as above; assay type: in vivo; conditions: 3 weeks
Summary of the method: as §1

Veronica persica = assay: Pre-emergence herbicidal effect; assay type: in vivo; conditions: 3 weeks
Summary of the method: as §1

Alopecurus myosuroides = assay: Pre-emergence herbicidal effect; assay type: in vivo; conditions: 320 g/ha, 3 weeks
Summary of the method: as §1

Amaranthus retroflexus = assay: Pre-emergence herbicidal effect; assay type: in vivo; conditions: 3 weeks
Summary of the method: as §1

Lolium multiflorum [4] = assay: Pre-emergence herbicidal effect; assay type: in vivo; conditions: 320 g/ha, 3 weeks
Summary of the method: as §1

Echinochloa crus-galli [5] = assay: Pre-emergence herbicidal effect; assay type: in vivo; conditions: 3 weeks
Summary of the method: as §1

Matricaria inodora = assay: Pre-emergence herbicidal effect; assay type: in vivo; conditions: 3 weeks
Summary of the method: as §1

Viola tricolor = assay: Pre-emergence herbicidal effect; assay type: in vivo; conditions: 320 g/ha, 3 weeks
Summary of the method: as §1

Stellaria media = assay: Pre-emergence herbicidal effect; assay type: in vivo; conditions: 3 weeks
Summary of the method: as §1

Zea mays [6] = assay: Post-emergence herbicidal effect and crop plant compatibility; assay type: in vivo; conditions: visual scoring after about 3 weeks
Method: (§2) Seeds of monocotyledonous and dicotyledonous weed and crop plants are laid out in sandy loam in wood-fiber pots, covered with soil and cultivated in a greenhouse under good growth conditions. 2 to 3 weeks after sowing, the test plants are treated at the one-leaf stage. The compounds of the invention, formulated in the form of wettable powders (WP) or as emulsion concentrates (EC), are then sprayed onto the green parts of the plants as aqueous suspension or emulsion at a water application rate equating to 600 to 800 L/ha with addition of 0.2% wetting agent. After the trial plants have been left to stand in a greenhouse under optimal growth conditions for about 3 weeks, the efficacy of the formulations is scored visually in comparison to untreated controls (herbicidal action in percent (%): 100% efficacy=the plants have died, 0% efficacy=like control plants).

[7] = tested on: Triticum aestivum (spring); assay: as above; assay type: in vivo; conditions: visual scoring after about 3 weeks
Method: as §2

Oryza sativa [8] = assay: as above; assay type: in vivo; conditions: visual scoring after about 3 weeks
Method: as §2

Lolium multiflorum [9] = assay: Post-emergence herbicidal effect; assay type: in vivo; conditions: 320 g/ha, visual scoring after about 3 weeks
Method: as §2

[10] = logp (HCOOH), physicochemical characterization
Abutilon theophrasti = assay: Pre-emergence herbicidal effect; assay type: in vivo; conditions: 320 g/ha, 3 weeks
Summary of the method: as §1

Avena fatua = assay: Pre-emergence herbicidal effect; assay type: in vivo; conditions: 320 g/ha, 3 weeks
Summary of the method: as §1

Polygonum convolvulus = assay: Pre-emergence herbicidal effect; assay type: in vivo; conditions: 320 g/ha, 3 weeks
Summary of the method: as §1

Setaria viridis = assay: Pre-emergence herbicidal effect; assay type: in vivo; conditions: 320 g/ha, 3 weeks
Summary of the method: as §1

Echinochloa crus-galli [11] = assay: Post-emergence herbicidal effect; assay type: in vivo; conditions: 320 g/ha, visual scoring after about 3 weeks
Method: as §2

Ipomoea purpurea = assay: Post-emergence herbicidal effect; assay type: in vivo; conditions: 320 g/ha (dose by row order of upper half), scoring after about 3 weeks
Method: as §2

Compound	ZEAMX herbicidal activity in percent (Zea mays [1]; 320 g/ha) [%]	TRZAS herbicidal activity in percent ([2]; 320 g/ha) [%]	ORYSA herbicidal activity in percent (Oryza sativa [3]; 320 g/ha) [%]	VERPE herbicidal activity in percent (Veronica persica; 320 g/ha) [%]	ALOMY herbicidal activity in percent (Alopecurus myosuroides) [%]	AMARE herbicidal activity in percent (Amaranthus retroflexus; 320 g/ha) [%]	LOLMU herbicidal activity in percent (Lolium multiflorum [4]) [%]	ECHCG herbicidal activity in percent (Echinochloa crus-galli [5]; 320 g/ha) [%]	MATIN herbicidal activity in percent (Matricaria inodora; 320 g/ha) [%]	VIOTR herbicidal activity in percent (Viola tricolor) [%]	STEME herbicidal activity in percent (Stellaria media; 320 g/ha) [%]	post-emergence efficacy TRZAS ([7]; 320 g/ha) [%]	post-emergence efficacy ORYSA (Oryza sativa [8]; 320 g/ha) [%]	post-emergence efficacy LOLMU (Lolium multiflorum [9]) [%]	logp (HCOOH) [10]	further results
CC(C)C1CC(=O)c2cnc(N[C@@H]3CCc4ccccc43)nc2C1 (stereo partly drawn) [2.103]	0	0	0	100	80	100	90	100	100	100	100	20	0	80		ZEAMX herbicidal activity in percent (Zea mays [1]; 80 g/ha): 0%; TRZAS herbicidal activity in percent ([2]; 80 g/ha): 0%; ORYSA herbicidal activity in percent (Oryza sativa [3]; 80 g/ha): 0%; VERPE herbicidal activity in percent (Veronica persica; 80 g/ha): 100%; AMARE herbicidal activity in percent (Amaranthus retroflexus; 80 g/ha): 100%; ECHCG herbicidal activity in percent (Echinochloa crus-galli [5]; 80 g/ha): 90%; MATIN herbicidal activity in percent (Matricaria inodora; 80 g/ha): 100%; STEME herbicidal activity in percent (Stellaria media; 80 g/ha): 100%; post-emergence efficacy ZEAMX (Zea mays [6]; 80 g/ha): 0%; post-emergence efficacy ZEAMX (Zea mays [6]; 320 g/ha): 0%; post-emergence efficacy TRZAS ([7]; 80 g/ha): 10%; post-emergence efficacy ORYSA (Oryza sativa [8]; 80 g/ha): 0%
Cc1ccc2c(c1)C(Nc1ncc3c(n1)CCCC3=O)CO2 (racemic) [2.117]	20	0	0						100						oily; logp (HCOOH): 2.52; 1H-NMR (CDCl3, 400 MHZ, δ in ppm): 2.10 (m, 2H, 2H	ABUTH herbicidal activity in percent (Abutilon theophrasti): 80%
O=C1CCCc2nc(N[C@@H]3CCOc4c(F)cccc43)ncc21 [2.19]	10	0		100	100	100	100	100	100	100	100	20	20	100	oily; logp (HCOOH): 2.29; 1H-NMR (CDCl3, 400 MHZ, δ in ppm): 2.15 (m, 3H, 2H	AVEFA herbicidal activity in percent (Avena fatua): 90%; POLCO herbicidal activity in percent (Polygonum convolvulus): 100%; SETVI herbicidal activity in percent (Setaria viridis): 100%; post-emergence efficacy ECHCG (Echinochloa crus-galli [11]): 100%; post-emergence efficacy PHBPU (Ipomoea purpurea): 80%
